Test results reported in US11214803B2, “Modulators of YAP1 expression” (Ionis Pharmaceuticals, Inc., priority 2019, dated 2022).
Strand notation (5' to 3'): a small letter for the sugar, then the base; units joined by * are phosphorothioate-linked, units joined directly phosphodiester-linked; [ ] holds rarer units or linkages, { } end groups; capitals alone tell only the bases. k = constrained ethyl (cEt); [5mC] = 5-methylcytosine; d = 2'-deoxy (DNA)

Tested on: Yap1 mRNA
Assay: Antisense inhibition of human Yap1 in A-431 cells by cEt gapmers, single dose (Example 3, RTS36584)
Assay type: cell-based
Method in brief: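 Values are % untreated control: Yap1 mRNA by quantitative RT-PCR (RTS36584), normalized to total RNA by RiboGreen. Before RNA isolation, 5,000 A-431 cells per well were exposed ~48 h to 2,000 nM 16-mer cEt gapmer, delivered without transfection reagent.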

[1] = Table 27, Yap1 mRNA by 3-10-3 cEt gapmers targeting SEQ ID NO.: 1, and 2, percent of untreated control
[2] = Table 34, Yap1 mRNA as percent of untreated control, 3-10-3 cEt gapmers targeting SEQ ID NO: 1 and 2, single dose
[3] = Table 28, Yap1 mRNA as percent of untreated control, 3-10-3 cEt gapmers targeting SEQ ID NO.: 1, and 2
[4] = Table 26, Yap1 mRNA by 3-10-3 cEt gapmers targeting SEQ ID NO.: 1, and 2, percent of untreated control
[5] = Table 9, A-431 cells, 5,000 cells per well, free uptake, 2,000 nM, approximately 48 hours, RTS36584, normalized to RIBOGREEN, Yap1 mRNA relative to untreated control cells
[6] = Table 8, A-431 cells, 5,000 cells per well, free uptake, 2,000 nM, approximately 48 hours, RTS36584, normalized to RIBOGREEN, Yap1 mRNA relative to untreated control cells
[7] = Table 29, Yap1 mRNA as percent of untreated control, 3-10-3 cEt gapmers targeting SEQ ID NO.: 1, and 2

Substance: 1076237 (kA*k[5mC]*kT*dA*dA*dA*dG*dG*dA*d[5mC]*dA*dA*dA*kG*kG*kT; antisense) [compound 1076237]
- YAP1 (% UTC) [1]: 109 % UTC

Substance: 1075860 (antisense kA*kA*k[5mC]*dT*dA*dT*dA*dA*dG*d[5mC]*dT*dA*dT*kG*kT*kG) [compound 1075860]
- YAP1 (% UTC) [2]: 73 % UTC

Substance: 1075252 (kT*kT*kA*dA*dT*dT*dA*d[5mC]*dG*dA*dT*dT*dA*kG*kA*kT; antisense) [compound 1075252]
- YAP1 (% UTC) [2]: 90 % UTC

Substance: 1074926 (antisense k[5mC]*kA*kA*d[5mC]*dA*dG*dG*d[5mC]*d[5mC]*dT*dG*d[5mC]*dA*kA*kA*kT) [compound 1074926]
- YAP1 (% UTC) [3]: 111 % UTC

Substance: 1075637 (antisense k[5mC]*k[5mC]*kA*d[5mC]*dA*dA*d[5mC]*d[5mC]*dT*dG*dT*d[5mC]*dA*kA*kT*kA) [compound 1075637]
- YAP1 (% UTC) (Table 35, Yap1 mRNA as percent of untreated control, 3-10-3 cEt gapmers targeting SEQ ID NO: 1 and 2, single dose): 100 % UTC

Substance: 1075725 (kA*kT*k[5mC]*d[5mC]*dT*dA*dT*d[5mC]*dT*dG*dT*d[5mC]*dA*kG*kT*kT; antisense) [compound 1075725]
- YAP1 (% UTC) [1]: 18 % UTC

Substance: 1075692 (kT*kA*kA*dG*dA*dA*d[5mC]*dA*d[5mC]*d[5mC]*dA*dT*dA*kG*k[5mC]*kA; antisense) [compound 1075692]
- YAP1 (% UTC) [4]: 11 % UTC

Substance: 1074190 (antisense k[5mC]*kG*kG*d[5mC]*dG*dG*dG*d[5mC]*d[5mC]*d[5mC]*dT*dG*d[5mC]*k[5mC]*k[5mC]*k[5mC]) [compound 1074190]
- YAP1 (% UTC) [3]: 114 % UTC

Substance: 1075340 (antisense k[5mC]*k[5mC]*k[5mC]*dG*dA*dA*d[5mC]*dA*d[5mC]*d[5mC]*d[5mC]*dA*dA*kA*kA*kA) [compound 1075340]
- YAP1 (% UTC) [4]: 103 % UTC

Substance: 1075980 (k[5mC]*kA*kA*dT*dA*dT*d[5mC]*d[5mC]*dT*dA*d[5mC]*dA*d[5mC]*k[5mC]*kA*kT; antisense) [compound 1075980]
- YAP1 (% UTC) [4]: 43 % UTC

Substance: 958721 (antisense kG*kT*kA*dG*dT*dA*dT*dA*dA*dT*dG*dA*dG*kT*kT*kA) [Compound 958721]
- YAP1 (% UTC) [5]: 1 % UTC

Substance: 958388 (antisense kG*kG*kA*dG*dG*d[5mC]*dG*d[5mC]*dG*d[5mC]*dG*d[5mC]*dA*kT*kT*kG) [Compound 958388]
- YAP1 (% UTC) [6]: 112 % UTC

Substance: 1075439 (antisense kA*kA*kT*dT*dA*dG*dA*dG*dA*dT*dA*dT*dG*kG*kA*k[5mC]) [compound 1075439]
- YAP1 (% UTC) [7]: 77 % UTC

Substance: 958373 (antisense kA*kG*kG*dT*dG*d[5mC]*dT*dA*dG*d[5mC]*dT*dG*dG*kT*kG*k[5mC]) [Compound 958373]
- YAP1 (% UTC) [6]: 8 % UTC

Substance: 958793 (antisense k[5mC]*k[5mC]*kG*d[5mC]*dA*dT*dT*dG*d[5mC]*d[5mC]*dT*dA*dA*kG*kA*kG) [Compound 958793]
- YAP1 (% UTC) (Table 11, A-431 cells, 5,000 cells per well, free uptake, 2,000 nM oligonucleotide, approx. 48 hours, primer probe set RTS36584, Yap1 mRNA normalized to RIBOGREEN, percent of untreated control): 9 % UTC

Substance: 1075124 (kG*kT*kA*dA*dA*dA*dA*d[5mC]*d[5mC]*dT*dG*dG*dG*kT*kT*kT; antisense) [compound 1075124]
- YAP1 (% UTC) [2]: 58 % UTC

Substance: 1075182 (kG*kA*kT*dA*dT*dT*dA*dT*dA*dT*dT*dA*d[5mC]*kT*kA*k[5mC]; antisense) [compound 1075182]
- YAP1 (% UTC) [3]: 61 % UTC

Substance: 1074348 (antisense kG*kT*kA*d[5mC]*dT*d[5mC]*dT*d[5mC]*dA*dT*d[5mC]*dT*d[5mC]*kG*kA*kG) [compound 1074348]
- YAP1 (% UTC) [4]: 100 % UTC

Substance: 1074575 (DNA kA*k[5mC]*kA*dT*dT*dA*dT*dG*dA*dA*d[5mC]*d[5mC]*dT*kA*k[5mC]*kT) [compound 1074575]
- YAP1 (% UTC) [7]: 14 % UTC

Substance: 1074158 (kG*kA*kG*d[5mC]*dG*dA*dG*dG*dG*d[5mC]*dT*dA*d[5mC]*kG*k[5mC]*k[5mC]; antisense) [compound 1074158]
- YAP1 (% UTC) [3]: 72 % UTC

Substance: 1075406 (antisense kA*k[5mC]*kT*dA*dT*dA*dT*dA*dA*d[5mC]*d[5mC]*dT*dG*kA*kA*k[5mC]) [compound 1075406]
- YAP1 (% UTC) [3]: 99 % UTC

Substance: 958656 (kA*k[5mC]*kG*d[5mC]*dA*dA*dT*d[5mC]*dT*dG*dT*dG*dA*kT*k[5mC]*k[5mC]; antisense) [Compound 958656]
- YAP1 (% UTC) [5]: 48 % UTC
